The results in this text go back to PMC3248958 (Bioorganic & medicinal chemistry, 2011).

Each structure is given as a SMILES string.

The first experiment addresses T1, Human Aromatase (Homo sapiens, UniProt P11511).
T1 sequence (P11511 1-503): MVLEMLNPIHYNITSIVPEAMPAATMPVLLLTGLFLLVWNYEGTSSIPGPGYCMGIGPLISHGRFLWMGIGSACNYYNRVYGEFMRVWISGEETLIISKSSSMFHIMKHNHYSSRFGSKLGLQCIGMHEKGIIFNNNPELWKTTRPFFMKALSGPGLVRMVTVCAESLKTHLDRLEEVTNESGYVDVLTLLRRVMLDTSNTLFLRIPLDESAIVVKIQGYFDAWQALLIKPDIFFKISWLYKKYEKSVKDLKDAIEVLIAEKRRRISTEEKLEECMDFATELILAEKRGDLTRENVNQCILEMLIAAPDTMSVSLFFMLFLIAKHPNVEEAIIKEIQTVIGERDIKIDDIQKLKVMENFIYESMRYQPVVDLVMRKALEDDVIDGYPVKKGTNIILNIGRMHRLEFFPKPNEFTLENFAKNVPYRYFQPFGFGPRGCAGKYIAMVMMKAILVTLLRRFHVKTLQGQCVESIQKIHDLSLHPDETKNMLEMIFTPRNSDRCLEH
Put plainly: Aromatase assay. Type of experiment: biochemical.
Details: not given
On to `c1cncc(-c2nsc(-c3cccnc3)n2)c1` [Compound 3b], for which the “times higher aromatase inhibitory activity than trans-resveratrol” value is 30-125 times and the “times more potent than the lead compound 3a as an aromatase inhibitor” value was “greater than 250 times”.

The experiment is the same for the next values; noted with them: relative to trans-resveratrol.
Take `c1cc(-c2nsc(-c3ccncc3)n2)ccn1` [Compound 3c]: the “times higher aromatase inhibitory activity than trans-resveratrol” value is reported as 30-125 times.

The subject of the next experiment is quinone reductase 1 (QR1). Put plainly: Quinone reductase 1. The format is cell-based, mouse. The conditions noted are these: Hepa 1c1c7 cells; determined for compounds with induction ratios > 2.
For the molecule `COc1ccc(-c2nsc(-c3ccc(OC)cc3)n2)cc1` [Compound 3g], the “QR1 Assay CD (concentration that doubles the activity)” value was greater than 50 µM.

As to `Nc1ccc(-c2nsc(-c3ccc(N)cc3)n2)cc1` [Compound 3ll, 3,5-Bis(4-aminophenyl)-1,2,4-thiadiazole], the “QR1 Assay CD (concentration that doubles the activity)” value was greater than 50 µM.

Turning to `Cc1ccc(-c2nsc(-c3ccc(C)cc3)n2)cc1` [Compound 3x, 3,5-Di-p-tolyl-1,2,4-thiadiazole], the “QR1 Assay CD (concentration that doubles the activity)” value is greater than 50 µM.

For `Cc1ccc(-c2nsc(-c3ccc(C)cc3Br)n2)c(Br)c1` [Compound 3dd, 3,5-Bis(2-bromo-4-methylphenyl)-1,2,4-thiadiazole], the “QR1 Assay CD (concentration that doubles the activity)” value was greater than 50 µM.

Turning to `c1cc(-c2nsc(-c3ccncc3)n2)ccn1` [Compound 3c], the “QR1 Assay CD (concentration that doubles the activity)” value is greater than 50 µM.

With `N#Cc1ccc(-c2nsc(-c3ccc(C#N)cc3)n2)cc1` [Compound 3gg, 4,4′-(1,2,4-Thiadiazole-3,5-diyl)dibenzonitrile], the “QR1 Assay CD (concentration that doubles the activity)” value was greater than 50 µM.

In the case of `Oc1ccc(-c2nsc(-c3ccc(O)cc3)n2)cc1` [Compound 3jj], the “QR1 Assay CD (concentration that doubles the activity)” value is greater than 50 µM.

In the case of `O=[N+]([O-])c1ccc(-c2nsc(-c3ccc([N+](=O)[O-])cc3)n2)cc1` [Compound 3ff], the “QR1 Assay CD (concentration that doubles the activity)” value was greater than 50 µM.

In the case of `Ic1ccc(-c2nsc(-c3ccc(I)cc3)n2)cc1` [Compound 3l, 3,5-Bis(4-iodophenyl)-1,2,4-thiadiazole], the “QR1 Assay CD (concentration that doubles the activity)” value is greater than 50 µM.

For the molecule `N#Cc1cccc(-c2nsc(-c3cccc(C#N)c3)n2)c1` [Compound 3hh, 3,3′-(1,2,4-Thiadiazole-3,5-diyl)dibenzonitrile], the “QR1 Assay CD (concentration that doubles the activity)” value was greater than 50 µM.

Consider `CCCCc1ccc(-c2nsc(-c3ccc(CCCC)cc3)n2)cc1` [Compound 3z, 3,5-Bis(4-butylphenyl)-1,2,4-thiadiazole], for which the “QR1 Assay CD (concentration that doubles the activity)” value is greater than 50 µM.

For `Oc1ccc(CCc2cc(O)cc(O)c2)cc1` [dihydroresveratrol, reference compound], the “QR1 Assay CD (concentration that doubles the activity)” value is greater than 50 µM.

Consider `Clc1ccc(-c2nsc(-c3ccc(Cl)c(Cl)c3)n2)cc1Cl` [Compound 3v, 3,5-Bis(3,4-dichlorophenyl)-1,2,4-thiadiazole], for which the “QR1 Assay CD (concentration that doubles the activity)” value was greater than 50 µM.

The same experiment, now with this note: Hepa 1c1c7 cells; positive control.
In the case of `O=c1cc(-c2ccc(Br)cc2)oc2ccccc12` [4'-Bromoflavone, reference compound], the “QR1 Assay CD of positive control” value turned out to be 0.01 M.

Test system in the next experiment: not given
Assay: not given
Conditions: tested at 400 μM of each compound.
Consider `c1cc(-c2nsc(-c3ccncc3)n2)ccn1` [Compound 3c], for which the “DPPH assay % inhibition” value is reported as -35.6±0.4%.

As to `c1cncc(-c2nsc(-c3cccnc3)n2)c1` [Compound 3b], the “DPPH assay % inhibition” value was -16.1±1.1%.
